In patent US20030017999A1, “Composition for the prevention and /or treatment of lipid metabolism disorders and allergic forms” (priority 2000, published 2003):

Experiments:
[1] = system: Mitomycin-induced toxicity (mortality); assay: Mortality induced by mitomycin C in mice; assay type: in vivo; details: for % animals surviving after 5 days / % animals surviving after 10 days / % animals surviving after 12 days (survival rate): mitomycin C 50 μg/mouse peritoneal for five days, alone or with isovaleryl L-carnitine 30 mg/mouse and/or β-glucan 10 mg/mouse; for % animals surviving after 5 days: day 5; for % animals surviving after 10 days: day 10; for % animals surviving after 12 days (survival rate): day 12
Description: Results of Tests Regarding the Immunostimulant and Protective Effect exerted against Mitomycin-induced Toxicity by the Combination of Isovaleryl L-carnitine and β-glucan
(§1) In these tests a first group of mice received peritoneal injections of 50 μg/mouse of mitomycin C for five consecutive days. In addition to mitomycin, a second group of animals were also injected with isovaleryl L-carnitine alone (30 mg/mouse), a third group with β-glucan alone (10 mg/mouse) and a fourth group with a combination of the two compounds for five consecutive days. On the fifth, tenth and twelfth day following the start of treatment, the number of leukocytes present in the blood and the mortality rates of the animals were evaluated in both treated and control animals.

[2] = system: Mitomycin-induced toxicity (leukocyte depletion); assay: Leukocyte depletion induced by mitomycin C in mice; assay type: in vivo; details: mitomycin C 50 μg/mouse peritoneal for five days, alone or with isovaleryl L-carnitine 30 mg/mouse and/or β-glucan 10 mg/mouse; for No. leukocytes after 5 days: day 5; for No. leukocytes after 10 days: day 10; for No. leukocytes after 12 days: day 12
Description: as §1

[3] = system: human macrophages from bronchoalveolar lavage fluid; assay: Macrophage stimulation test (phagocytosis and intracellular killing); assay type: cell-based
Description: After filtration, centrifuging and gradient separation on Ficoll, the viability of the cells was evaluated with the trypan blue test. Phagocytosis and intracellular killing were calculated according to the method described by […]. Bacterial, 98:996, 1969).

Structure (SMILES) | % animals surviving after 5 days [1] [%] | % animals surviving after 10 days [1] [%] | % animals surviving after 12 days (survival rate) [1] [%] | mortality rate ([1]; mitomycin C alone 50 μg/mouse peritoneal for five days, twelfth day) [%] | No. leukocytes after 5 days [2] | No. leukocytes after 10 days [2] | No. leukocytes after 12 days [2] | increase in intracellular killing [3] [%] | increase in phagocyte activity [3] [%]
CO[C@@]12[C@H](COC(N)=O)C3=C(C(=O)C(C)=C(N)C3=O)N1C[C@@H]1N[C@@H]12 [Mitomycin C] | 50 | 20 | 0 | 100 | 5,400 ± 270 | 3,000 ± 220 | 1,100 ± 190 |  | 
CC(C)CC(=O)O[C@H](CC(=O)[O-])C[N+](C)(C)C [Isovaleryl L-carnitine] | 50 | 30 | 15 |  | 5,750 ± 310 | 4,900 ± 220 | 3,100 ± 310 | 15 | 10
